Data on one compound can be found in patent US20250243196A1, “CITRON KINASE INHIBITORS” (The Cleveland Clinic Foundation, priority 2021, published 2025).

One test concerns the target PIP5K1g(h) (Homo sapiens (Human), UniProt O60331). The experiment in a line: KinaseProfiler panel. The class given is biochemical. The note with it: activity remaining.
Another test has as its target TSSK3(h) (Homo sapiens (Human), UniProt Q96PN8). The experiment in a line: KinaseProfiler panel. The class given is biochemical. On the set-up: dose or concentration left out as unconfirmed. To be noted: activity remaining.
Test [1] deals with NanoLuc-CITK (full-length human CITK) (Homo sapiens (Human), UniProt O14578). As to the kind of experiment: NanoBRET intracellular target engagement assay. The class given is cell-based. On the procedure:
In-cell Kd values were evaluated with a NanoBRET Target Engagement Assay essentially as recommended by the manufacturer (Promega Corporation—for details see https://www.promega.com/resources/technologies/nanoluc-luciferase-enzyme/cellular-target-engagement/).
HEK293T cells were transfected with 5.0 μg/mL sterile NanoLuc-CITK DNA, 5.0 μg/mL Transfection Carrier DNA, and 30 μL/mL FugeneHD® (Promega) in Opti-Mem™ (Thermo) media at a cell density of 250,000 cells/mL. […] 5 μL of the 25× Tracer K10 solution was added to each well. Next, designated inhibitors were prepared from powder as 10 mM DMSO stocks and then further diluted to 10× the final assay concentration in Opti-Mem™. 12-pt dose-response curves were prepared by 3×-serial dilution. […] A 3× Complete Substrate+Inhibitor solution, containing 6 mL of Opti-Mem™, 36 μL of NanoBRET Nano-Glo Substrate, and 12 μL Extracellular NanoLuc Inhibitor was freshly prepared for each plate. 50 μL of the 3× Complete Substrate+Inhibitor solution was added to all wells and the plate was incubated for 2 min with 500 RPM shaking. The bottom of the plates were covered with black plate seals and then measured on a Cytation 5 plate reader (Biotek) with a NanoBRET Filter Cube (Biotek; 450/50 emission & 610LP emission). Background corrected BRET ratios (in mBU) were calculated in Excel and IC50's were subsequently extracted using four-parameter non-linear regression in GraphPad Prism 8.

The next test deals with BIKE (Homo sapiens (Human), UniProt Q9NSY1). As to the kind of experiment: KinaseProfiler radiometric assay (16-044KP). The format is biochemical. To be noted: mean of at least two independent experiments. From the text: In another aspect, disclosed is a method of inhibiting citron kinase in a sample, comprising contacting the sample with a compound described herein (e.g., a compound of formula (I) or a pharmaceutically acceptable salt thereof), or a pharmaceutical composition described herein (e.g., a pharmaceutical composition comprising a compound of formula (I) or a pharmaceutically acceptable salt thereof), in an amount effective to inhibit citron kinase. In some embodiments, the step of contacting the sample with the compound comprises administering the compound to a subject (e.g., a subject) suffering from cancer. Methods of determining kinase inhibition are well known in the art. For example, kinase activity of an enzyme and the inhibitory capacity of a test compound can be determined by measuring enzyme specific phosphorylation of a substrate. Commercial assays and kits can be employed. For example, kinase inhibition can be determined using a radiometric binding assay, such as using KinaseProfiler™ technology (Eurofins Discovery). This assay method directly detects product formation without the use of modified substrates or coupling enzymes. […]
The effect of various compounds on the inhibition of other kinases has also been determined. Table 2 reports measured IC50 values; value units are nanomolar inhibition.

The next test has as its target BTK(h) (Homo sapiens (Human), UniProt Q06187). The experiment in a line: KinaseProfiler panel. The format is biochemical. The note with it: activity remaining. On the set-up: dose or concentration left out as unconfirmed.
A further test concerns the target PEK(h) (Homo sapiens (Human), UniProt Q9NZJ5). The experiment in a line: KinaseProfiler panel. The class given is biochemical. On the set-up: dose or concentration left out as unconfirmed. The note with it: activity remaining.
A further test concerns the target STK39(h) (Homo sapiens (Human), UniProt Q9UEW8). The experiment in a line: KinaseProfiler panel. The class given is biochemical. To be noted: activity remaining.
A further test concerns the target PKCα(h) (Homo sapiens (Human), UniProt P17252). The experiment in a line: KinaseProfiler panel. The format is biochemical. On the set-up: dose or concentration left out as unconfirmed. To be noted: activity remaining.
The next test addresses NUAK2(h) (Homo sapiens (Human), UniProt Q9H093). As to the kind of experiment: KinaseProfiler panel. On the set-up: dose or concentration left out as unconfirmed. The note with it: activity remaining. The class given is biochemical.
A further test concerns the target DAPK1(h) (Homo sapiens (Human), UniProt P53355). The experiment in a line: KinaseProfiler panel. The class given is biochemical. On the set-up: dose or concentration left out as unconfirmed. The note with it: activity remaining.
Another test concerns the target MEK1(h) (Homo sapiens (Human), UniProt Q02750). As to the kind of experiment: KinaseProfiler panel. The class given is biochemical. On the set-up: dose or concentration left out as unconfirmed. The note with it: activity remaining.
In a further test the target is CDK5/p25(h) (Homo sapiens (Human), UniProt Q00535). The experiment in a line: KinaseProfiler panel. The format is biochemical. On the set-up: dose or concentration left out as unconfirmed. The note with it: activity remaining.
A further test addresses BRK(h) (Homo sapiens (Human), UniProt Q13882). As to the kind of experiment: KinaseProfiler panel. The format is biochemical. Also on record: dose or concentration left out as unconfirmed. To be noted: activity remaining.
For a further test, the target named is PKAcβ(h) (Homo sapiens (Human), UniProt P22694). The experiment in a line: KinaseProfiler panel. The format is biochemical. On the set-up: dose or concentration left out as unconfirmed. To be noted: activity remaining.
For another test, the target named is PKCβII(h) (Homo sapiens (Human), UniProt P05771). As to the kind of experiment: KinaseProfiler panel. The class given is biochemical. On the set-up: dose or concentration left out as unconfirmed. To be noted: activity remaining.
Another test addresses GRK5(h) (Homo sapiens (Human), UniProt P34947). The experiment in a line: KinaseProfiler panel. Also on record: dose or concentration left out as unconfirmed. To be noted: activity remaining. The class given is biochemical.
Another test concerns the target mTOR/FKBP12(h) (Homo sapiens (Human), UniProt P42345). As to the kind of experiment: KinaseProfiler panel. The format is biochemical. On the set-up: dose or concentration left out as unconfirmed. To be noted: activity remaining.
In the next test the target is EphA1(h) (Homo sapiens (Human), UniProt P21709). The experiment in a line: KinaseProfiler panel. The class given is biochemical. Also on record: dose or concentration left out as unconfirmed. To be noted: activity remaining.
A further test concerns the target DCAMKL1(h) (Homo sapiens (Human), UniProt O15075). The experiment in a line: KinaseProfiler panel. On the set-up: dose or concentration left out as unconfirmed. The class given is biochemical. The note with it: activity remaining.

Each structure is given as a SMILES string.

Chain of NanoLuc-CITK (full-length human CITK) (O14578 other isoform, or with tags, fused parts or gaps): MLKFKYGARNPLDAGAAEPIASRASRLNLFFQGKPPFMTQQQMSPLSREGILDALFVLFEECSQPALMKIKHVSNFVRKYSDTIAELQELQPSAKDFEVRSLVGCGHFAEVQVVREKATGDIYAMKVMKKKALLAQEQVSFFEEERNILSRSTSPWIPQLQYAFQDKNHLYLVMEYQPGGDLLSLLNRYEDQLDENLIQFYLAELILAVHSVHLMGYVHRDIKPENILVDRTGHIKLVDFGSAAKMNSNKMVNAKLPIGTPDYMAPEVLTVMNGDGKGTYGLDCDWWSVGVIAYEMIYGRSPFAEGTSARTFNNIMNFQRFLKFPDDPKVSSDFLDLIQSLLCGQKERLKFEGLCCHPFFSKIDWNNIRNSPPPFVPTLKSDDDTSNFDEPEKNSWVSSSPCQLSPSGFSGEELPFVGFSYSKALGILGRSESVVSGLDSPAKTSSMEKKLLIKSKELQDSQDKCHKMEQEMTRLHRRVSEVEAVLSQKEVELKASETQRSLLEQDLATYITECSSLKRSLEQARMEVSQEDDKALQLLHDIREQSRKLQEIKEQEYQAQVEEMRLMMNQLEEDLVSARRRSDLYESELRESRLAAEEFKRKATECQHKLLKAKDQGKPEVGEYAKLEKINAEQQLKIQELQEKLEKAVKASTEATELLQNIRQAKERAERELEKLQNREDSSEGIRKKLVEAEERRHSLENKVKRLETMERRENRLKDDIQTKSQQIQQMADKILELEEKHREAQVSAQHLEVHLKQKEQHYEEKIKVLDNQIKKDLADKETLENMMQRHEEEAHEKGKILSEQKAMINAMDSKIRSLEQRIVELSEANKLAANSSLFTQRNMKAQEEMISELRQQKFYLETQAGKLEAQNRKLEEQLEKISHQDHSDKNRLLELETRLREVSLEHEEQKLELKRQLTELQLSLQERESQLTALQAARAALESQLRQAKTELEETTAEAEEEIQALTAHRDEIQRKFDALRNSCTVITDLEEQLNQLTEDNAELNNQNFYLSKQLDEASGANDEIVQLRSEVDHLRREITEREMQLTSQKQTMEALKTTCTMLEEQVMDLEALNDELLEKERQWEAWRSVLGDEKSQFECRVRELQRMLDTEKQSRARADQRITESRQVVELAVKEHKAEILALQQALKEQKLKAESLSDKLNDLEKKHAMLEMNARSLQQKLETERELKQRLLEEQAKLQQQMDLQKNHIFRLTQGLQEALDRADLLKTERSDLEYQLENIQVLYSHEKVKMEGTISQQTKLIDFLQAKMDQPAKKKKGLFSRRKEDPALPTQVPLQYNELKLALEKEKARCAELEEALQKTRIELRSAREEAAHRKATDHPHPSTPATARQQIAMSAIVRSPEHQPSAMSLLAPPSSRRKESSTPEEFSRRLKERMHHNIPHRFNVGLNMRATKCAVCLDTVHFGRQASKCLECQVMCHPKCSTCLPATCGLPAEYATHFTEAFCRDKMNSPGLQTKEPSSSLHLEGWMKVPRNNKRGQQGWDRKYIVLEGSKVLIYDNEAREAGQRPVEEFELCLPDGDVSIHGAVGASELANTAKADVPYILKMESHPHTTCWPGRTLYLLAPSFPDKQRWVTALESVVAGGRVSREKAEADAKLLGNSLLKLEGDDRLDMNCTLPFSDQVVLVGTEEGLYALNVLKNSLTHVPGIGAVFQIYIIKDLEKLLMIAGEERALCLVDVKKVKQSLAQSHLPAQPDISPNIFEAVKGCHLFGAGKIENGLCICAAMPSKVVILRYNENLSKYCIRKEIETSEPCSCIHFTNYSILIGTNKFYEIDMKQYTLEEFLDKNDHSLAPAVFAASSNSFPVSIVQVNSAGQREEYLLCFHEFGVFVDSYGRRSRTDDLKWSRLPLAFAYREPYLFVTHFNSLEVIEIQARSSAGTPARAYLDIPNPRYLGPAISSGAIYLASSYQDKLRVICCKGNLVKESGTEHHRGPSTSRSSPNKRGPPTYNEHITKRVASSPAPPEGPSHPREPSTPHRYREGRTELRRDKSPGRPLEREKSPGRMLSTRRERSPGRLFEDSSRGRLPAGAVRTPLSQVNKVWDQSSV
Chain of GRK5(h) (P34947 whole entry): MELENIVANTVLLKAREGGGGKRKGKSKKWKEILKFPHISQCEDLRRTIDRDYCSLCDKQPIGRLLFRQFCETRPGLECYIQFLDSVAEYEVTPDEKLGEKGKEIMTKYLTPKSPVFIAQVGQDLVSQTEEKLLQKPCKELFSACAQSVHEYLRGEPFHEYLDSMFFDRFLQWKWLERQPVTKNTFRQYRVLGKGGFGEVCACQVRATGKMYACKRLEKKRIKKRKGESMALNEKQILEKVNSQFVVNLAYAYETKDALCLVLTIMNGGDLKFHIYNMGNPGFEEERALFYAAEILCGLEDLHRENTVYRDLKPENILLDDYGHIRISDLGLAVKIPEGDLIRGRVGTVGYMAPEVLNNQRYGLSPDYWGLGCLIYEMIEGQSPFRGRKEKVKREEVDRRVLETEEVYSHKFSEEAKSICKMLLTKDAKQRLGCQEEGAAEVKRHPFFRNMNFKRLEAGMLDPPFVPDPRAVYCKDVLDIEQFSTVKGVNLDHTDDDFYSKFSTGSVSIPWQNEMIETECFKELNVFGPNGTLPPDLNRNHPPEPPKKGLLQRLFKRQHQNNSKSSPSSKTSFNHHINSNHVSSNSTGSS
Chain of DAPK1(h) (P53355 whole entry): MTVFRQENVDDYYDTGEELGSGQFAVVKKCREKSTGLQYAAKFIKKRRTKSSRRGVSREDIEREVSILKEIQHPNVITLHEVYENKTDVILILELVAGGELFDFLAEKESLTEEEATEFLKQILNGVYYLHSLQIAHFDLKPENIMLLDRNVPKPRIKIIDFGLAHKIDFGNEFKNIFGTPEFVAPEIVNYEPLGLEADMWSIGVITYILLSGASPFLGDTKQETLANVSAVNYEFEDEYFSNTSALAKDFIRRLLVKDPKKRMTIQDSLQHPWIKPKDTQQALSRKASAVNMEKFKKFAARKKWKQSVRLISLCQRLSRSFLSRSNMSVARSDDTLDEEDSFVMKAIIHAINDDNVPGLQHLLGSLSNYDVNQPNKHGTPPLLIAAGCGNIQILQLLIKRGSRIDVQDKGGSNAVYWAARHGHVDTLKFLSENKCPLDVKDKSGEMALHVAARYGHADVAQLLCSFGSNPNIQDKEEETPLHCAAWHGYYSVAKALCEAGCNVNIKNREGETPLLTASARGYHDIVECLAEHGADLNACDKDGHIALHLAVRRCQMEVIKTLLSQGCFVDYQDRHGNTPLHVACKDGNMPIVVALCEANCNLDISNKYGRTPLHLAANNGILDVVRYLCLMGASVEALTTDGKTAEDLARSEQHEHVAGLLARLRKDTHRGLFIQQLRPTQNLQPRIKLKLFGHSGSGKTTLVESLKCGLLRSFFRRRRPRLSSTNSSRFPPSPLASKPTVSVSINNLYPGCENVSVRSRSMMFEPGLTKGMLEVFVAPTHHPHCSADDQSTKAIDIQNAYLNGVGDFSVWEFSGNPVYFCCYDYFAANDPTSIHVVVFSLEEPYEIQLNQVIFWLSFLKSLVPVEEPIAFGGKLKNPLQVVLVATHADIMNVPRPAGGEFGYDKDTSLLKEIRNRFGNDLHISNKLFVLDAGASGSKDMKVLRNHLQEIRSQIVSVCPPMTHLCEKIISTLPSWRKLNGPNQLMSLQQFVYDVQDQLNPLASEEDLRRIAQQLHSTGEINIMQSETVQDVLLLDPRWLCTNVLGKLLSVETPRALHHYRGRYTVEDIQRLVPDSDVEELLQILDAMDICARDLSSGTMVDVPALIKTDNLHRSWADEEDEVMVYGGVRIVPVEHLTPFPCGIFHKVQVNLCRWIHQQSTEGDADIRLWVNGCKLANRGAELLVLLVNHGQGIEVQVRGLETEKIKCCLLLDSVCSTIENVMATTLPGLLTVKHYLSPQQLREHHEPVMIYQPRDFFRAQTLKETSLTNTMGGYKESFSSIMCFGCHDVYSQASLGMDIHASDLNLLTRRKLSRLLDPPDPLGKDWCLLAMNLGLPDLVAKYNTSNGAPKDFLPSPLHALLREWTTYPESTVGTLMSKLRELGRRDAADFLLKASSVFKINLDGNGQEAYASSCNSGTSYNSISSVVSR
Chain of TSSK3(h) (Q96PN8 whole entry): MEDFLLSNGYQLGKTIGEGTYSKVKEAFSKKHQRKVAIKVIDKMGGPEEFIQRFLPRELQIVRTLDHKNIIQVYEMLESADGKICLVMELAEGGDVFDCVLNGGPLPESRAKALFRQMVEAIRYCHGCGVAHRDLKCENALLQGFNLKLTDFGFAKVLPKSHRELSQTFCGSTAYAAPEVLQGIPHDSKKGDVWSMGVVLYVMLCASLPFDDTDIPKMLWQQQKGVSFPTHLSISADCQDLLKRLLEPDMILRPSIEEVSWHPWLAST

As to `Cc1cc2c(-c3ccc(NC(=O)[C@H](N)CC(C)(C)C)cc3C)ccnc2[nH]1` [Compound F-90, (2R)-2-Amino-4,4-dimethyl-N-[3-methyl-4-(2-methyl-1H-pyrrolo[2,3-b]pyridin-4-yl)phenyl]pentanamide], the “% Activity” value was 102% on PIP5K1g(h); 96% on TSSK3(h); 122% on BTK(h); 91% on PEK(h); 102% on STK39(h); 92% at PKCα(h). For the same compound, the “% Activity” value at NUAK2(h) is reported as 72%; on DAPK1(h) it was 82%; on MEK1(h), 101%; on CDK5/p25(h) it was 72%; on BRK(h) it was 83%; at PKAcβ(h) it was 12%. The “% Activity” value is 87% at PKCβII(h); 97% at GRK5(h); 120% on mTOR/FKBP12(h); 92% on EphA1(h); 95% on DCAMKL1(h). Also, in test [1], binding was characterised by a dissociation constant (Kd) of 9.9 nM. For the same compound, the IC50 turned out to be 53 nM in test [1] (HEK293T cells transfected with NanoLuc-CITK, Tracer K10 1 μM, 2 hours) and 902 nM against BIKE.
